Values after ≈ are worked out from the molar mass of the structure shown. Where two headings read alike, the source gives them in different places.
Tests used:
[1] = tested on: Staphylococcus aureus Ap 01; experiment: Antibacterial spectrum, standard serial dilution method; type: cell-based; settings: read-out: Minimum Growth Inhibitory Concentration
[2] = tested on: Staphylococcus epidermidis 109; experiment: as above; type: cell-based; settings: read-out: Minimum Growth Inhibitory Concentration
[3] = tested on: Micrococcus flavus FDA 16; experiment: as above; type: cell-based; settings: read-out: Minimum Growth Inhibitory Concentration
Sarcina lutea PCI 1001 = experiment: as above; type: cell-based; settings: Micrococcus luteus, read-out: Minimum Growth Inhibitory Concentration
Bacillus anthracis = experiment: microbe, parasite or virus in culture; type: cell-based; settings: 18 h, read-out: Minimum Growth Inhibitory Concentration
[4] = tested on: Bacillus subtilis PCI 219; experiment: Antibacterial spectrum, standard serial dilution method; type: cell-based; settings: read-out: Minimum Growth Inhibitory Concentration
[5] = tested on: Bacillus cereus ATCC 1-702; experiment: as above; type: cell-based; settings: read-out: Minimum Growth Inhibitory Concentration
[6] = tested on: Corynebacterium bovis 1810; experiment: as above; type: cell-based; settings: read-out: Minimum Growth Inhibitory Concentration
Escherichia coli NIHJ = experiment: as above; type: cell-based; settings: read-out: Minimum Growth Inhibitory Concentration
Escherichia coli K-12 = experiment: as above; type: cell-based; settings: read-out: Minimum Growth Inhibitory Concentration
[7] = tested on: Escherichia coli K-12 R388; experiment: as above; type: cell-based; settings: K12R388, 18 h, read-out: Minimum Growth Inhibitory Concentration
[8] = tested on: Escherichia coli K-12 ML1629; experiment: as above; type: cell-based; settings: K12ML1629, E. coli K-12 ML1629, Muller-Hinton medium, 37° C., 18 hours, read-out: Minimum Growth Inhibitory Concentration
[9] = tested on: Escherichia coli K-12 ML1410; experiment: as above; type: cell-based; settings: read-out: Minimum Growth Inhibitory Concentration
[10] = tested on: Escherichia coli K-12 ML1410 R81; experiment: as above; type: cell-based; settings: K12ML1410R81, 18 h, read-out: Minimum Growth Inhibitory Concentration
Escherichia coli JR225 = experiment: as above; type: cell-based; settings: JR225, 18 h, read-out: Minimum Growth Inhibitory Concentration
[11] = tested on: Klebsiella Pneumoniae PCI 602; experiment: as above; type: cell-based; settings: read-out: Minimum Growth Inhibitory Concentration
[12] = tested on: Klebsiella pneumoniae 22 = 3038; experiment: as above; type: cell-based; settings: read-out: Minimum Growth Inhibitory Concentration
[13] = tested on: Shibella flexneri 4b JS11811; experiment: as above; type: cell-based; settings: 18 h, read-out: Minimum Growth Inhibitory Concentration
Shigella sonnei = experiment: as above; type: cell-based; settings: Muller-Hinton medium, 37° C., 18 hours, read-out: Minimum Growth Inhibitory Concentration
Salmonella typhi T-63 = experiment: as above; type: cell-based; settings: Salmonella enterica, 18 h, read-out: Minimum Growth Inhibitory Concentration
[14] = tested on: Salmonella enteritidis 1891; experiment: as above; type: cell-based; settings: Salmonella enterica, Muller-Hinton medium, 37° C., 18 hours, read-out: Minimum Growth Inhibitory Concentration
Proteus rettgeri GN466 = experiment: as above; type: cell-based; settings: Providencia rettgeri; Proteus rettgeri GN466; Muller-Hinton medium, 37° C., 18 hours; read-out: Minimum Growth Inhibitory Concentration
Serratia sp. SOU = experiment: as above; type: cell-based; settings: read-out: Minimum Growth Inhibitory Concentration
Serratia sp. 4 = experiment: as above; type: cell-based; settings: Muller-Hinton medium, 37° C., 18 hours, read-out: Minimum Growth Inhibitory Concentration
[15] = tested on: Pseudomonas aeruguinosa A3; experiment: as above; type: cell-based, Pseudomonas aeruginosa; settings: read-out: Minimum Growth Inhibitory Concentration
[16] = tested on: Pseudomonas aeruguinosa No.12; experiment: as above; type: cell-based, Pseudomonas aeruginosa; settings: Muller-Hinton medium, 37° C., 18 hours, read-out: Minimum Growth Inhibitory Concentration
[17] = tested on: Pseudomonas aeruguinosa H9; experiment: as above; type: cell-based, Pseudomonas aeruginosa; settings: Pseudomonas aeruguinosa H9; Muller-Hinton medium, 37° C., 18 hours; read-out: Minimum Growth Inhibitory Concentration
[18] = tested on: Pseudomonas aeruguinosa TI-13; experiment: as above; type: cell-based, Pseudomonas aeruginosa; settings: TI13; Pseudomonas aeruguinosa TI-13; Muller-Hinton medium, 37° C., 18 hours; read-out: Minimum Growth Inhibitory Concentration
[19] = tested on: Pseudomonas aeruguinosa GN315; experiment: as above; type: cell-based, Pseudomonas aeruginosa; settings: Pseudomonas aeruguinosa GN315; Muller-Hinton medium, 37° C., 18 hours; read-out: Minimum Growth Inhibitory Concentration
[20] = tested on: Pseudomonas aeruguinosa 99; experiment: as above; type: cell-based, Pseudomonas aeruginosa; settings: Muller-Hinton medium, 37° C., 18 hours, read-out: Minimum Growth Inhibitory Concentration
[21] = tested on: Pseudomonas aeruguinosa 21-75; experiment: as above; type: cell-based, Pseudomonas aeruginosa; settings: 2175, Muller-Hinton medium, 37° C., 18 hours, read-out: Minimum Growth Inhibitory Concentration
[22] = tested on: Pseudomonas aeruguinosa PST1; experiment: as above; type: cell-based, Pseudomonas aeruginosa; settings: Muller-Hinton medium, 37° C., 18 hours, read-out: Minimum Growth Inhibitory Concentration
[23] = tested on: Pseudomonas aeruguinosa K-Ps 102; experiment: as above; type: cell-based, Pseudomonas aeruginosa; settings: KPS102; Pseudomonas aeruguinosa K-Ps 102; Muller-Hinton medium, 37° C., 18 hours; read-out: Minimum Growth Inhibitory Concentration
[24] = Staphylococcus epidermidis, 109, 18 h
[25] = Micrococcus flavus, FDA16, 18 h
[26] = Bacillus subtilis, PCI219, 18 h
[27] = ATCC1, Bacillus cereus ATCC 1-702, Muller-Hinton medium, 37° C., 18 hours
[28] = Corynebacterium bovis 1810, Muller-Hinton medium, 37° C., 18 hours
[29] = Klebsiella Pneumoniae PCI 602, Muller-Hinton medium, 37° C., 18 hours
[30] = Pseudomonas aeruguinosa A3, Muller-Hinton medium, 37° C., 18 hours

SMILES | MIC ([1]; AP01, 18 h) | MIC (Bacillus anthracis) | MIC [7] | MIC [8] | MIC [10] | MIC (Escherichia coli JR225) | MIC [13] | MIC (Shigella sonnei) | MIC (Salmonella typhi T-63) | MIC [14] | MIC (Proteus rettgeri GN466) | MIC (Serratia sp. 4) | MIC [16] | MIC [17] | MIC [18] | MIC [19] | MIC [20] | MIC [21] | MIC [22] | MIC [23] | other results
CNCC1CCC(O)C(OC2C(N)CC(OC)C(N(C)C(=O)CCN)C2O)O1 (stereo not drawn) [Compound No. 3, 4-N-(β-Alanyl)-2'-deamino-2'-hydroxyistamycin Bo] | 6.25 µg/mL (≈ 15.5 µM) | 3.13 µg/mL (≈ 7.74 µM) | 3.13 µg/mL (≈ 7.74 µM) | 6.25 µg/mL (≈ 15.5 µM) | 25 µg/mL (≈ 61.8 µM) | 3.13 µg/mL (≈ 7.74 µM) | 6.25 µg/mL (≈ 15.5 µM) | 6.25 µg/mL (≈ 15.5 µM) | 1.56 µg/mL (≈ 3.86 µM) | 6.25 µg/mL (≈ 15.5 µM) | 0.78 µg/mL (≈ 1.93 µM) | 100 µg/mL (≈ 247 µM) | 100 µg/mL (≈ 247 µM) | 50 µg/mL (≈ 124 µM) | 100 µg/mL (≈ 247 µM) | 50 µg/mL (≈ 124 µM) | > 100 µg/mL | 100 µg/mL (≈ 247 µM) | 100 µg/mL (≈ 247 µM) | 50 µg/mL (≈ 124 µM) | MIC [2, 24]: 3.13 µg/mL (≈ 7.74 µM); MIC [3, 25]: 6.25 µg/mL (≈ 15.5 µM); MIC (Sarcina lutea PCI 1001; PCI1001, 18 h): 3.13 µg/mL (≈ 7.74 µM); MIC [4, 26]: 6.25 µg/mL (≈ 15.5 µM); MIC [5, 27]: 25 µg/mL (≈ 61.8 µM); MIC [6, 28]: 12.5 µg/mL (≈ 30.9 µM); MIC (Escherichia coli NIHJ; 18 h): 1.56 µg/mL (≈ 3.86 µM); MIC (Escherichia coli K-12; K12, 18 h): 3.13 µg/mL (≈ 7.74 µM); MIC ([9]; K12ML1410, E. coli K-12 ML1410, Muller-Hinton medium, 37° C., 18 hours): 12.5 µg/mL (≈ 30.9 µM); MIC [11, 29]: 12.5 µg/mL (≈ 30.9 µM); MIC ([12]; Klebsiella pneumoniae 22 = 3038, Muller-Hinton medium, 37° C., 18 hours): 12.5 µg/mL (≈ 30.9 µM); MIC (Serratia sp. SOU; Serratia, 18 h): 3.13 µg/mL (≈ 7.74 µM); MIC ([15]; Pseudomonas, A3, 18 h): 3.13 µg/mL (≈ 7.74 µM)
CNCC1CCC(O)C(OC2C(N)CC(O)C(N(C)C(=O)CCN)C2O)O1 (stereo not drawn) [Compound No. 4, 4-N-(β-Alanyl)-2'-deamino-2'-hydroxy-3-O-demethylistamycin Bo] | 3.13 µg/mL (≈ 8.02 µM) | 1.56 µg/mL (≈ 4 µM) | 1.56 µg/mL (≈ 4 µM) | 3.13 µg/mL (≈ 8.02 µM) | 6.25 µg/mL (≈ 16 µM) | 1.56 µg/mL (≈ 4 µM) | 6.25 µg/mL (≈ 16 µM) | 3.13 µg/mL (≈ 8.02 µM) | 0.78 µg/mL (≈ 2 µM) | 3.13 µg/mL (≈ 8.02 µM) | 0.39 µg/mL (≈ 0.999 µM) | 12.5 µg/mL (≈ 32 µM) | 12.5 µg/mL (≈ 32 µM) | 12.5 µg/mL (≈ 32 µM) | 12.5 µg/mL (≈ 32 µM) | 12.5 µg/mL (≈ 32 µM) | 25 µg/mL (≈ 64 µM) | 12.5 µg/mL (≈ 32 µM) | 12.5 µg/mL (≈ 32 µM) | 25 µg/mL (≈ 64 µM) | MIC [2, 24]: 1.56 µg/mL (≈ 4 µM); MIC [3, 25]: 3.13 µg/mL (≈ 8.02 µM); MIC (Sarcina lutea PCI 1001; PCI1001, 18 h): 1.56 µg/mL (≈ 4 µM); MIC [4, 26]: 3.13 µg/mL (≈ 8.02 µM); MIC ([5]; Bacillus cereus, ATCC1, 18 h): 6.25 µg/mL (≈ 16 µM); MIC ([6]; Corynebacterium bovis, 1810, 18 h): 3.13 µg/mL (≈ 8.02 µM); MIC (Escherichia coli NIHJ; 18 h): 1.56 µg/mL (≈ 4 µM); MIC (Escherichia coli K-12; K12, 18 h): 1.56 µg/mL (≈ 4 µM); MIC ([9]; K12ML1410, 18 h): 6.25 µg/mL (≈ 16 µM); MIC ([11]; Klebsiella pneumoniae, 18 h): 3.13 µg/mL (≈ 8.02 µM); MIC ([12]; Klebsiella pneumoniae, 18 h): 3.13 µg/mL (≈ 8.02 µM); MIC (Serratia sp. SOU; Serratia, 18 h): 1.56 µg/mL (≈ 4 µM); MIC [15, 30]: 0.39 µg/mL (≈ 0.999 µM)
CNCC1CCC(N)C(OC2C(N)CC(OC)C(N(C)C(=O)CN)C2O)O1 (stereo not drawn) [Istamycin B, istamycin B] |  | 0.78 µg/mL (≈ 2 µM) | 1.56 µg/mL (≈ 4.01 µM) | 1.56 µg/mL (≈ 4.01 µM) | 1.56 µg/mL (≈ 4.01 µM) | 0.78 µg/mL (≈ 2 µM) | 3.13 µg/mL (≈ 8.04 µM) | 3.13 µg/mL (≈ 8.04 µM) | 0.39 µg/mL (≈ 1 µM) | 3.13 µg/mL (≈ 8.04 µM) | 0.78 µg/mL (≈ 2 µM) | 50 µg/mL (≈ 128 µM) | 25 µg/mL (≈ 64.2 µM) | 12.5 µg/mL (≈ 32.1 µM) | 25 µg/mL (≈ 64.2 µM) | 25 µg/mL (≈ 64.2 µM) | > 100 µg/mL | 50 µg/mL (≈ 128 µM) | 50 µg/mL (≈ 128 µM) | 25 µg/mL (≈ 64.2 µM) | MIC ([1]; AP01, S. aureus Ap 01, Muller-Hinton medium, 37° C., 18 hours): 1.56 µg/mL (≈ 4.01 µM); MIC ([2]; Staphylococcus epidermidis, S. epidermidis 109, Muller-Hinton medium, 37° C., 18 hours): 0.78 µg/mL (≈ 2 µM); MIC ([3]; FDA16, Micrococcus flavus FDA 16, Muller-Hinton medium, 37° C., 18 hours): 25 µg/mL (≈ 64.2 µM); MIC (Sarcina lutea PCI 1001; PCI1001, Sarcina lutea PCI 1001, Muller-Hinton medium, 37° C., 18 hours): 0.39 µg/mL (≈ 1 µM); MIC ([4]; PCI219, Bacillus subtilis PCI 219, Muller-Hinton medium, 37° C., 18 hours): 0.78 µg/mL (≈ 2 µM); MIC [5, 27]: 6.25 µg/mL (≈ 16 µM); MIC [6, 28]: 0.78 µg/mL (≈ 2 µM); MIC (Escherichia coli NIHJ; E. coli NIHJ, Muller-Hinton medium, 37° C., 18 hours): 0.78 µg/mL (≈ 2 µM); MIC (Escherichia coli K-12; K12, E. coli K-12, Muller-Hinton medium, 37° C., 18 hours): 0.78 µg/mL (≈ 2 µM); MIC ([9]; K12ML1410, 18 h): 3.13 µg/mL (≈ 8.04 µM); MIC [11, 29]: 1.56 µg/mL (≈ 4.01 µM); MIC ([12]; Klebsiella pneumoniae, 18 h): 3.13 µg/mL (≈ 8.04 µM); MIC (Serratia sp. SOU; Serratia sp. SOU, Muller-Hinton medium, 37° C., 18 hours): 25 µg/mL (≈ 64.2 µM); MIC [15, 30]: 0.39 µg/mL (≈ 1 µM)

Source: US4795743A, “2'-deamino-2'-hydroxyistamycin Bo derivatives of low toxicity” (Zaidan Hojin Biseibutsu Kagaku Kenkyu Kai, priority 1986, dated 1989)
